In US20190167716A9, “Use of Electrolyzed Water for Treatment and Prevention of Common Livestock Diseases and Conditions, Including PRRS” (priority 2013, published 2019) one finds strep symptoms data, which are given here for one compound.

The assay relates to streptococcus. Put plainly: Fog test in bi-room swine confinement infected with streptococcus. Type of assay: in vivo. The following applies: both rooms after a course of R-pen; recurred 10 days later in the control room. The protocol: A test was conducted in a 70′×280′ bi-room configuration swine confinement in a wean to finish operation infected with streptococcus symptoms and showing severe symptoms. The swine confinement included a common effluent pit with center dividing wall and pit level equalization cutouts at the base. Each room included a standard layout with […] and a 24 inch gated alleyway. Capacity was 2480 head, each room was 70 feet by 140 feet; one room was used as the test room to receive the electrolyzed water treatment, the other as a control. Two high pressure lines, centered through the barn at 12 inches below the ceiling, were used to deliver the electrolyzed water. The water was delivered via 60 nozzles in the treatment room, rated at 0.020 gallons per minute, two for each pen, at 1000 psi. The output of fog or mist to the room was 1.2 gallon per minute, delivered by 1000 psi 3 gpm 2 horsepower pump, actuated by a preset timer. The fog was administered for about 1 minute, each of four times a day at generally equally spaced intervals. Total was about 4.8 gallons per 24 hour period.
Both rooms were filled Oct. 17, 2013. Treatment began 1 week later and continued for 15 weeks. […] The death report, per room per week during the 15 week trial was as follows: […]

As to `CC1(C)S[C@@H]2[C@H](NC(=O)Cc3ccccc3)C(=O)N2[C@H]1C(=O)[O-].[K+]` [R-pen], the strep symptoms entry is listed as “decrease in strep symptoms”.
